ChEMBL document CHEMBL1141584, “Synthesis, biological evaluation and molecular modelling studies of methyleneimidazole substituted biaryls as inhibitors of human 17alpha-hydroxylase-17,20-lyase (CYP17). Part I: Heterocyclic modifications of the core structure” (Bioorg Med Chem, 2008)

Experiments:
[1] = tested on: Rattus norvegicus; assay: Reduction of testosterone level in Wistar rat plasma at 50 mg/kg, po after 8 hrs by ELISA relative to pretreatment value; type: functional; design: scale not given: the % may be the effect or the level left
[2] = biological target: T1, Steroid 17-alpha-hydroxylase/17,20 lyase (Homo sapiens, UniProt P05093); assay: Inhibition of human CYP17 expressed in Escherichia coli co-expressed with NADPH-P450 reductase
T1 sequence (P05093 whole entry): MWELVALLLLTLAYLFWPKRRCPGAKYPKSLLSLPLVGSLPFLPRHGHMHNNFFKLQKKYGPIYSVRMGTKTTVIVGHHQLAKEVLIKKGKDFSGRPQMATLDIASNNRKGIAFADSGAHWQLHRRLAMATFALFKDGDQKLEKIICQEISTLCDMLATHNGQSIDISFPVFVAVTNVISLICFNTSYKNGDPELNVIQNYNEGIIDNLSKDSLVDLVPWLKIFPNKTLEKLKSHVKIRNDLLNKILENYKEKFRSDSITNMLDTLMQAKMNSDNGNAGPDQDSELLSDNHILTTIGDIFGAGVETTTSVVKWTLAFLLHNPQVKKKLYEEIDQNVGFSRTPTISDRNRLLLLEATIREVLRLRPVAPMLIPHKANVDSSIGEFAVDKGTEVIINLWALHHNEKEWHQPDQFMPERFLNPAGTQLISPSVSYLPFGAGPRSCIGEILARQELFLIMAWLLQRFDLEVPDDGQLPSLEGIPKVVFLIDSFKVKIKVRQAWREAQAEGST

[3] = tested on: Rattus norvegicus; assay: Reduction of testosterone level in Wistar rat plasma at 50 mg/kg, po after 6 hrs by ELISA relative to pretreatment value; type: functional; design: scale not given: the % may be the effect or the level left
[4] = biological target: T2, CYP2C19 (Homo sapiens, UniProt P33261); assay: Inhibition of recombinant CYP2C19 at 1 uM; type: ADME
T2 sequence (P33261 whole entry): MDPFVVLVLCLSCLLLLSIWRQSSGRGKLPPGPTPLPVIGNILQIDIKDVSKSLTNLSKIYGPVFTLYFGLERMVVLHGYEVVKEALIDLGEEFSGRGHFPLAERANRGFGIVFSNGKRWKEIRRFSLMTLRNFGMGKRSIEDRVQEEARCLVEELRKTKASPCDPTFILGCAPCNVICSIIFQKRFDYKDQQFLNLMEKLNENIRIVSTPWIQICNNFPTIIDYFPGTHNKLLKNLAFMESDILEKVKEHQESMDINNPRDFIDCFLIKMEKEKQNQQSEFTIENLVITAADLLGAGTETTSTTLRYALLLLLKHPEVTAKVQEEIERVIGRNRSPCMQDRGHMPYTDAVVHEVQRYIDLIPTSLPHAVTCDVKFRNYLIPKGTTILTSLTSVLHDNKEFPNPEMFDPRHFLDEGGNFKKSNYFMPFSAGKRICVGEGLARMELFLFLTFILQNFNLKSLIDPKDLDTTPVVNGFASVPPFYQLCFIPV

[5] = biological target: T3, CYP2B6 (Homo sapiens, UniProt P20813); assay: Inhibition of recombinant CYP2B6 at 10 uM; type: ADME
T3 sequence (P20813 whole entry): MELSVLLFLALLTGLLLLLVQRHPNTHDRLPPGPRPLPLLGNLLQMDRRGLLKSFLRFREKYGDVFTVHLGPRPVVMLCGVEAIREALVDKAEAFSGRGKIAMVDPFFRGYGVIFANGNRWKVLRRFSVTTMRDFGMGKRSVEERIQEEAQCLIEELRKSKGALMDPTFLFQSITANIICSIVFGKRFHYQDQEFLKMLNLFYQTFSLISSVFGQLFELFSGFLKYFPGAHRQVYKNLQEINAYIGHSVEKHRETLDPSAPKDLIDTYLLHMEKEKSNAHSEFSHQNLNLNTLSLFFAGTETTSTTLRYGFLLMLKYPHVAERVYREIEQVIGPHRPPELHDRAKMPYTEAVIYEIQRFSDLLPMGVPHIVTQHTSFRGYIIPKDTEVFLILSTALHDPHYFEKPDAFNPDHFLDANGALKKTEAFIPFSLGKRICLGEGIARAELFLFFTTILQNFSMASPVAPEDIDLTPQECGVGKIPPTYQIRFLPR

[6] = biological target: T4, CYP1A2 (Homo sapiens, UniProt P05177); assay: Inhibition of recombinant CYP1A2 at 1 uM; type: ADME
T4 sequence (P05177 whole entry): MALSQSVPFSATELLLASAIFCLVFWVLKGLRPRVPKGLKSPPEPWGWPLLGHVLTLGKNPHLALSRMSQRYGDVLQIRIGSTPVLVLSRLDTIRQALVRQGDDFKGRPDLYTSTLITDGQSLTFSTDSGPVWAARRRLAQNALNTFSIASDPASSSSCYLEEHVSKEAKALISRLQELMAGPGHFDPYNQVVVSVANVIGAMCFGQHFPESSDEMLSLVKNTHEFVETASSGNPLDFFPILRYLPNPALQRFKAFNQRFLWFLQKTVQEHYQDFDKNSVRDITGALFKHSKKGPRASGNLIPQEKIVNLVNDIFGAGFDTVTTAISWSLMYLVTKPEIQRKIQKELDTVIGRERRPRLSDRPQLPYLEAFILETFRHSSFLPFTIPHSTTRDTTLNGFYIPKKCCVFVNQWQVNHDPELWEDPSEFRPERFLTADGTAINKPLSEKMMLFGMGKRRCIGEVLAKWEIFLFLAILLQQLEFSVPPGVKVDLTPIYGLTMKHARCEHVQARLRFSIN

[7] = tested on: Rattus norvegicus; assay: Reduction of testosterone level in Wistar rat plasma at 50 mg/kg, po after 2 hrs by ELISA relative to pretreatment value; type: functional; design: scale not given: the % may be the effect or the level left
[8] = biological target: T4, CYP1A2; assay: Inhibition of recombinant CYP1A2 at 10 uM; type: ADME
[9] = biological target: T5, CYP3A4 (Homo sapiens, UniProt P08684); assay: Inhibition of recombinant CYP3A4 at 1 uM; type: ADME
T5 sequence (P08684 whole entry): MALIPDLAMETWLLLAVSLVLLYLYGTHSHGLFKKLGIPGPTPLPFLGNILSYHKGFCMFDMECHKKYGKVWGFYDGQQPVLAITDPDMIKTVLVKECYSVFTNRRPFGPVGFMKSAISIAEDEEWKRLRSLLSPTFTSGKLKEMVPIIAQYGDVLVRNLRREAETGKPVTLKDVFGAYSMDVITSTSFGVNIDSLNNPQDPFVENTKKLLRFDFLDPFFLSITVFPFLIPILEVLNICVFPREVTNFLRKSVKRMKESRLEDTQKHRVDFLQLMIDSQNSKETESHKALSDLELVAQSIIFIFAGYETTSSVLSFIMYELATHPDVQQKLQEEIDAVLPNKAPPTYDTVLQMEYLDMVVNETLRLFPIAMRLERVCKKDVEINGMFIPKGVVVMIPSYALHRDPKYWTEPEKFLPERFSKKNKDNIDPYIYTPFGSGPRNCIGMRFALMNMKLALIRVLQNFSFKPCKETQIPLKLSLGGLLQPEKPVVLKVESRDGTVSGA

[10] = biological target: T6, CYP2C9 (Homo sapiens, UniProt P11712); assay: Inhibition of recombinant CYP2C9 at 10 uM; type: ADME
T6 sequence (P11712 whole entry): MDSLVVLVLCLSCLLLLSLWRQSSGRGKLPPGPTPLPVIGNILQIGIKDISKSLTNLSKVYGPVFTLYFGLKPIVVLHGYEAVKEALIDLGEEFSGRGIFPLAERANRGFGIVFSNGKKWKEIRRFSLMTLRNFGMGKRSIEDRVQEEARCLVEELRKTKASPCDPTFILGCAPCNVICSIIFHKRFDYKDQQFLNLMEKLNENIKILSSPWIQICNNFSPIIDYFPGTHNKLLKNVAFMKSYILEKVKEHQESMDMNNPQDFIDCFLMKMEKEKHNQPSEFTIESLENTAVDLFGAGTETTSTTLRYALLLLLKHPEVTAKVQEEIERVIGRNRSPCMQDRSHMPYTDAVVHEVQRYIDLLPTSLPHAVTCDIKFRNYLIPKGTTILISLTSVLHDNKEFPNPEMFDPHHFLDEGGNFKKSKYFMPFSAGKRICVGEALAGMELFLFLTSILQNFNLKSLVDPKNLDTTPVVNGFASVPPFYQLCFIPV

[11] = Tmax in Wistar rat at 50 mg/kg, po; type: ADME, organism-based; design: dose 50 mg/kg, route oral; conditions: in vivo
[12] = Total body clearance in Wistar rat at 50 mg/kg, po; type: ADME, organism-based; design: dose 50 mg/kg, route oral; conditions: in vivo
[13] = biological target: T7, Steroid 17-alpha-hydroxylase/17,20 lyase (Rattus norvegicus, UniProt P11715); assay: Inhibition of Sprague-Dawley rat testicular CYP17
T7 sequence (P11715 whole entry): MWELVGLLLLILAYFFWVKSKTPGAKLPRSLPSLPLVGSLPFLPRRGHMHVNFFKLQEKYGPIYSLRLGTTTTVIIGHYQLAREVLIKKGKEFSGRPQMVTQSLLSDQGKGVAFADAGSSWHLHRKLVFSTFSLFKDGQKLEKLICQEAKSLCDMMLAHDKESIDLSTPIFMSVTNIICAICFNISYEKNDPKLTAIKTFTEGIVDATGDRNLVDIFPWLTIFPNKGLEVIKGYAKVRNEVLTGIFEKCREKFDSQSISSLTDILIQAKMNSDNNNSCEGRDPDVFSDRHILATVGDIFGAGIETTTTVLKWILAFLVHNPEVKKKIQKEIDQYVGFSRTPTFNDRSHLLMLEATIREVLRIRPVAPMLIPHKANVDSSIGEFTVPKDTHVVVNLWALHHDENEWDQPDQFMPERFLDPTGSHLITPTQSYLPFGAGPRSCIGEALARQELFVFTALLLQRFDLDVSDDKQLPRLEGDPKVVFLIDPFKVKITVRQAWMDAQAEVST

[14] = biological target: T5, CYP3A4; assay: Inhibition of recombinant CYP3A4 at 10 uM; type: ADME
[15] = AUC (0 to infinity) in Wistar rat at 50 mg/kg, po; type: ADME, organism-based; design: time infinity, dose 50 mg/kg, route oral; conditions: plasma
[16] = Terminal half life in Wistar rat plasma at 50 mg/kg, po; type: ADME, organism-based; design: dose 50 mg/kg, route oral
[17] = tested on: Rattus norvegicus; assay: Reduction of testosterone level in Wistar rat at 50 mg/kg, po after 4 hrs by ELISA relative to pretreatment value; type: functional; design: scale not given: the % may be the effect or the level left
[18] = biological target: T2, CYP2C19; assay: Inhibition of recombinant CYP2C19 at 10 uM; type: ADME
[19] = biological target: T1, Steroid 17-alpha-hydroxylase/17,20 lyase; assay: Inhibition of human CYP17 expressed in Escherichia coli co-expressed with NADPH-P450 reductase at 0.2 uM
[20] = Cmax in Wistar rat at 50 mg/kg, po; type: ADME, organism-based; design: dose 50 mg/kg, route oral; conditions: in vivo
[21] = biological target: T3, CYP2B6; assay: Inhibition of recombinant CYP2B6 at 1 uM; type: ADME
[22] = biological target: T8, CYP2D6 (Homo sapiens, UniProt P10635); assay: Inhibition of recombinant CYP2D6 at 10 uM; type: ADME
T8 sequence (P10635 whole entry): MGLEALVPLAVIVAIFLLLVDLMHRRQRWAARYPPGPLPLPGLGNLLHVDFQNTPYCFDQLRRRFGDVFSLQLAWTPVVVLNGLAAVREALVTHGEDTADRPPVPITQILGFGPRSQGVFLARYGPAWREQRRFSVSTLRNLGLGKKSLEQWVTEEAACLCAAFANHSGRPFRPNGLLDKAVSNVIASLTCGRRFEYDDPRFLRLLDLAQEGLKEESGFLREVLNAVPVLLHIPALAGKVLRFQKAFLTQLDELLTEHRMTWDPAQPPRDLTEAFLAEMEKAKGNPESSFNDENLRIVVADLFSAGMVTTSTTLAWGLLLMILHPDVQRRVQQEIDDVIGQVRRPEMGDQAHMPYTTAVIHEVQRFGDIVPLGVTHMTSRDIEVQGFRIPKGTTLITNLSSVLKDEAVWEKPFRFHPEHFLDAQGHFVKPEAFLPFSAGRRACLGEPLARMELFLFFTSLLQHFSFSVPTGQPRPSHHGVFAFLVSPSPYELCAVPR

[23] = biological target: T6, CYP2C9; assay: Inhibition of recombinant CYP2C9 at 1 uM; type: ADME
[24] = biological target: T1, Steroid 17-alpha-hydroxylase/17,20 lyase; assay: Inhibition of human CYP17 expressed in Escherichia coli co-expressed with NADPH-P450 reductase at 2 uM
[25] = biological target: T8, CYP2D6; assay: Inhibition of recombinant CYP2D6 at 1 uM; type: ADME
[26] = tested on: Rattus norvegicus; assay: Reduction of testosterone level in Wistar rat plasma at 50 mg/kg, po after 1 hr by ELISA relative to pretreatment value; type: functional; design: scale not given: the % may be the effect or the level left
[27] = tested on: Rattus norvegicus; assay: Reduction of testosterone level in Wistar rat plasma at 56.02 mg/kg, po after 1 hr by ELISA relative to pretreatment value; type: functional; design: scale not given: the % may be the effect or the level left
[28] = tested on: Rattus norvegicus; assay: Reduction of testosterone level in Wistar rat plasma at 56.02 mg/kg, po after 2 hrs by ELISA relative to pretreatment value; type: functional; design: scale not given: the % may be the effect or the level left
[29] = tested on: Rattus norvegicus; assay: Reduction of testosterone level in Wistar rat plasma at 56.02 mg/kg, po after 6 hrs by ELISA relative to pretreatment value; type: functional; design: scale not given: the % may be the effect or the level left
[30] = tested on: Rattus norvegicus; assay: Reduction of testosterone level in Wistar rat plasma at 56.02 mg/kg, po after 4 hrs by ELISA relative to pretreatment value; type: functional; design: scale not given: the % may be the effect or the level left
[31] = tested on: Rattus norvegicus; assay: Reduction of testosterone level in Wistar rat plasma at 56.02 mg/kg, po after 8 hrs by ELISA relative to pretreatment value; type: functional; design: scale not given: the % may be the effect or the level left

Compound: CCC(c1ccc(-c2ccsc2)cc1)n1ccnc1 (stereo unspecified)
- Activity [1]: 63%
- IC50 [2]: 373 nM
- Activity [3]: 62.6%
- inhibition at 1 µM [4]: 95%
- inhibition at 10 µM [5]: 87%
- inhibition at 1 µM [6]: 98%
- Activity [7]: 30.5%
- inhibition at 10 µM [8]: 100%
- inhibition at 1 µM [9]: 88%
- inhibition at 10 µM [10]: 74%
- Tmax [11]: 1 h
- CL/F [12]: 125 mL/min/kg
- IC50 [13]: 562 nM
- inhibition at 10 µM [14]: 92%
- AUC(0-inf) [15]: 6700 ng·h/mL
- half-life [16]: 3.8 h
- Activity [17]: 26.9%
- inhibition at 10 µM [18]: 100%
- inhibition at 0.2 µM [19]: 28%
- Cmax [20]: 1740 ng/mL
- inhibition at 1 µM [21]: 60%
- inhibition at 10 µM [22]: 77%
- inhibition at 1 µM [23]: 81%
- inhibition at 2 µM [24]: 83%
- inhibition at 1 µM [25]: 24%
- Activity [26]: 37.6%

Compound: CC(=O)O[C@H]1CC[C@@]2(C)C(=CC[C@@H]3[C@@H]2CC[C@]2(C)C(c4cccnc4)=CC[C@@H]32)C1 [ABIRATERONE ACETATE]
- Activity [27]: 92.5%
- Activity [28]: 44%
- Activity [29]: 43.3%
- Activity [30]: 43.5%
- Activity [31]: 35.6%
